Test [1] deals with T1, Myosin-IIIb (Homo sapiens) (UniProt Q8WXR4).
T1 sequence (whole entry): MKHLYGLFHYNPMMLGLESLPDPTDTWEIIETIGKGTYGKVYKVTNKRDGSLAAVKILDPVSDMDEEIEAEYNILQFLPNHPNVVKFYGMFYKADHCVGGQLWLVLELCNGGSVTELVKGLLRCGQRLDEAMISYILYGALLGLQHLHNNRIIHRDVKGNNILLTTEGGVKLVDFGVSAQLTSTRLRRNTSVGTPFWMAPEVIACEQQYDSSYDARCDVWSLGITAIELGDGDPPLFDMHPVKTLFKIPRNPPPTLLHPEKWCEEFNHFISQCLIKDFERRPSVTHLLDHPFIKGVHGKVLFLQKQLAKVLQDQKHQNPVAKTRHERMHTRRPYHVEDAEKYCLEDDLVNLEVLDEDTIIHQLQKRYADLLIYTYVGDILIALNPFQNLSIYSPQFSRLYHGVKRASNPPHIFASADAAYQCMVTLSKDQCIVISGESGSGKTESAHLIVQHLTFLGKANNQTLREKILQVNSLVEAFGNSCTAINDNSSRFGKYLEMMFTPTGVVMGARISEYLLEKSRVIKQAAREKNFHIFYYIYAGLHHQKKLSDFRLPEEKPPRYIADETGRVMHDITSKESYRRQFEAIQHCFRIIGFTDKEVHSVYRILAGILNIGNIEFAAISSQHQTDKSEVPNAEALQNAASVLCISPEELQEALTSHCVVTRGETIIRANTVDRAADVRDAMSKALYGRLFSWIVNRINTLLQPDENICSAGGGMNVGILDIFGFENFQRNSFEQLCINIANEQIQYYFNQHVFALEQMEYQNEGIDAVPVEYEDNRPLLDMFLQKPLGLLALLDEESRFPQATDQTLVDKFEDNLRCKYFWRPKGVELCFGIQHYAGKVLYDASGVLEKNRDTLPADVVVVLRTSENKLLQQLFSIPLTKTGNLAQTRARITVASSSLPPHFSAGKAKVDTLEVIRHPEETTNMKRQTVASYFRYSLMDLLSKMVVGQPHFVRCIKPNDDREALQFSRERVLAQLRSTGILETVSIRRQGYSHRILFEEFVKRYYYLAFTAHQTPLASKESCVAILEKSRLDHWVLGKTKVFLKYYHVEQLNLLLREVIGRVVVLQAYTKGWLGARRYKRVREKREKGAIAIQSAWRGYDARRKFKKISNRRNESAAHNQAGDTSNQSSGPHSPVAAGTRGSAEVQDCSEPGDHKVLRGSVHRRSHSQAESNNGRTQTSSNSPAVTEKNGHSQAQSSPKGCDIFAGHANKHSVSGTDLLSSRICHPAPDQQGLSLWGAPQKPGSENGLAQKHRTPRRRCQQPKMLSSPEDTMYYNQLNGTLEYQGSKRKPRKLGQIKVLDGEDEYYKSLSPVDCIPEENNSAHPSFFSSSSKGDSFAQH
Nature of the test: Selectivity interaction (LanthaScreen Eu Kinase Binding Assay) EUB0001632a MYO3B. As to conditions: at 10 µM. For orientation: TR-FRET usually uses a lanthanide donor and a delayed reading to cut background.

Test [2] concerns the target Insulin-like growth factor 1 receptor (Homo sapiens, UniProt P08069). Nature of the test: Selectivity interaction (Kinase panel (Invitrogen)) EUB0000639a IGF1R. As to conditions: at 200 nM.
The target in test [3] is T2, Tyrosine-protein kinase JAK3 (Homo sapiens) (UniProt P52333).
T2 sequence (whole entry): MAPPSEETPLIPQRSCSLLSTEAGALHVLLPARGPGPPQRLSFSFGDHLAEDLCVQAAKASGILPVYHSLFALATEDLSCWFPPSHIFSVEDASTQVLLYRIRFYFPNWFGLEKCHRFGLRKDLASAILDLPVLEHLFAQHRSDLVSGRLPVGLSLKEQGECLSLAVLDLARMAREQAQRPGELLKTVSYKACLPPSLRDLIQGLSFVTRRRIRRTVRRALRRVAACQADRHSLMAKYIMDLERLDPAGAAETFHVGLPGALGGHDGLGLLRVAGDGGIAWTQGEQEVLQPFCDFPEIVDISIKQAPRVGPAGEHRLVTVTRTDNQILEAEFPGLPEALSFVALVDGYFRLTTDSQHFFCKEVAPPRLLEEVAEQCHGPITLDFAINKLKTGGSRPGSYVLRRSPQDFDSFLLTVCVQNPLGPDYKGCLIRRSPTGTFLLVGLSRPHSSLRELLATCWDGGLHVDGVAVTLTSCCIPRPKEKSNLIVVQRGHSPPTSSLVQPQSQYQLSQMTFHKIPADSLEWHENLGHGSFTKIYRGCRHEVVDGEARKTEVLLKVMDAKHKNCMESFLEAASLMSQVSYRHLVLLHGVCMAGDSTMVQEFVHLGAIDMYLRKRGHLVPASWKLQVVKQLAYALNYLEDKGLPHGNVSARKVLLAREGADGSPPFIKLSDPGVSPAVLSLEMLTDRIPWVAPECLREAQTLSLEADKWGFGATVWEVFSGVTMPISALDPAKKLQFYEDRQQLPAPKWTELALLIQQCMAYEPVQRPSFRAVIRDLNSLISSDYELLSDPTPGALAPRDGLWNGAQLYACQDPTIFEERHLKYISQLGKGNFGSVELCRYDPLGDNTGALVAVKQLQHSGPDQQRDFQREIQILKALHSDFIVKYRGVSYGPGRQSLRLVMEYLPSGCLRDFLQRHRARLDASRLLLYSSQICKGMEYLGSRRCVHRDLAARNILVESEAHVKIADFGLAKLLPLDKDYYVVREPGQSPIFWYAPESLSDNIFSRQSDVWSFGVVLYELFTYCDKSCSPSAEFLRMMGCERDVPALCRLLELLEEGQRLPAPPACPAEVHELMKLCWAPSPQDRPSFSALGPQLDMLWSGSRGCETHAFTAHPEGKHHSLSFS
Nature of the test: Selectivity interaction (KinomeScan (DiscoverX)) EUB0000092b JAK3. The following applies: at 10 µM.

Chain of Insulin-like growth factor 1 receptor (P08069 31-736 limits assumed): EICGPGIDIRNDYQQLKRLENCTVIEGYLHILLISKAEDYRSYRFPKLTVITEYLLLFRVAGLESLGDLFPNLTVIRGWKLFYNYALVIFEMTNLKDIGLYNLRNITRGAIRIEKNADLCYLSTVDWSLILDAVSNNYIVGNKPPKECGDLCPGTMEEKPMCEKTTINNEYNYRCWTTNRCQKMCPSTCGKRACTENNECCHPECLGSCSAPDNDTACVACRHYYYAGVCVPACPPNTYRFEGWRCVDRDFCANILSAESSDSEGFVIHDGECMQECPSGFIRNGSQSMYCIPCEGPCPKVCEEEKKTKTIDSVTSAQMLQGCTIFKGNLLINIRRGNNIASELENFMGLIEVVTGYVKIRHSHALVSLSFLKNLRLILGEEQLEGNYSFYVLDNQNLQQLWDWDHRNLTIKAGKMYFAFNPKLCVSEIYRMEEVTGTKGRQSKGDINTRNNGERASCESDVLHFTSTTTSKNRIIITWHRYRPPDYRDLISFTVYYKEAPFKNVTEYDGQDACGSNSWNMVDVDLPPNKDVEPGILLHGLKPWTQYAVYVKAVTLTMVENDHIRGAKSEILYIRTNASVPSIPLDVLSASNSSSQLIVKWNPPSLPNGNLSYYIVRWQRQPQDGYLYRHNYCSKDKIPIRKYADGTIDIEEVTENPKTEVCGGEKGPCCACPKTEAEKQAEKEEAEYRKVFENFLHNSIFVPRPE
Chain of Insulin-like growth factor 1 receptor (P08069 741-1367 limits assumed): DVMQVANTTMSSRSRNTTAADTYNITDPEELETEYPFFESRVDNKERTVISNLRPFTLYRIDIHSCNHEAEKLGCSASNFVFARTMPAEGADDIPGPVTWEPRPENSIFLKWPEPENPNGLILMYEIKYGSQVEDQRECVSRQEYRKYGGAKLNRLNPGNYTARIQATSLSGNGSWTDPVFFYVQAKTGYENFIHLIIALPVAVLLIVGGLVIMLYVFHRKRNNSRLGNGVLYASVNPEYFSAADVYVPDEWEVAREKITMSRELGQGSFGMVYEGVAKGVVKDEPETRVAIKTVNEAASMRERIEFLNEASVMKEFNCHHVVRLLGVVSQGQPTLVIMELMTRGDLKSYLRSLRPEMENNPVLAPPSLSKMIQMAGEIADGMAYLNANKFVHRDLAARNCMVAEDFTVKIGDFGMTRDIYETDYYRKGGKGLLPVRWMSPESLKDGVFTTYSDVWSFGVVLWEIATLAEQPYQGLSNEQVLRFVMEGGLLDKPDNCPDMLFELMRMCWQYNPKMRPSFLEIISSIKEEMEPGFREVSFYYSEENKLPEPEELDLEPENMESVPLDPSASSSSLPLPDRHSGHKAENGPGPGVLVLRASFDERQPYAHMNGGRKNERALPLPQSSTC

Take `Cn1cc(-n2cnc3c(NCc4nc5cc(Cl)c(Cl)cc5[nH]4)nc(N4CCOCC4)nc32)cn1`: the % of inhibition in test [1] is -8.99%.

With `CC[C@@H]1[C@H](F)C(=O)N[C@@H]1COc1nccc2cc(C(N)=O)c(OC)cc12` [ZIMLOVISERTIB], the % of inhibition in test [2] came to 7.84%.

`CCC(=O)N1CCN(c2ccc(-n3c(=O)ccc4cnc5ccc(-c6cnc7ccccc7c6)cc5c43)cc2C(F)(F)F)CC1` registered a % of control in test [3] of 100%.
